# Several values for one entry are separate records, joined by “and”; a condition that tells them apart may be missing. Equal values may be shown once.
# What was measured:
# TGFB-R1 (ALK5) = target: T1, TGFB-R1 (ALK5) (Homo sapiens, UniProt P36897); assay: radiometric protein kinase assay, ALK5; type: biochemical; conditions: [ATP] = 1 μM; Fig. 7K
# T1 construct: purchased ProQinase GmbH (Freiburg, Germany); host or cells: bacteria (so in the source)
# T1 sequence (P36897 34-503): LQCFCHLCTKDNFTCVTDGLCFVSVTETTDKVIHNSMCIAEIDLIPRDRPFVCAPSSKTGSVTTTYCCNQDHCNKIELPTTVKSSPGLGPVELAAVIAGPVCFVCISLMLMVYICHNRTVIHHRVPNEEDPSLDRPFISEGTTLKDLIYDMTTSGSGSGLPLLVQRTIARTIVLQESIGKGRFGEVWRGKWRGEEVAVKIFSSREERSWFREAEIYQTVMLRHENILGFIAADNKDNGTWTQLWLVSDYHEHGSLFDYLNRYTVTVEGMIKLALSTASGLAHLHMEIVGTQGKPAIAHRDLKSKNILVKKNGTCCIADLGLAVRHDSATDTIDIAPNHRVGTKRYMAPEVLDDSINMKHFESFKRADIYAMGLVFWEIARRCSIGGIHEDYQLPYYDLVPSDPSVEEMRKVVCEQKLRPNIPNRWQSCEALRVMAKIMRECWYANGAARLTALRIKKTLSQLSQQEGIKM
# Method: (§1) IC50 values were calculated using Prism 5.04 for Windows (GraphPad, San Diego, CA, USA; www.graphpad.com). The mathematical model used was ‘Sigmoidal response (variable slope)’ with parameters ‘top’ fixed at 100% and ‘bottom’ at 0%. The fitting method used was a least-squares fit.
# ACV-R1 (ALK2) = target: T2, ACV-R1 (ALK2) (Homo sapiens, UniProt Q04771); assay: radiometric protein kinase assay, ALK2; type: biochemical; conditions: [ATP] = 3 μM; Fig. 7B
# T2 construct: purchased ProQinase GmbH (Freiburg, Germany); host or cells: bacteria (so in the source)
# T2 sequence (Q04771 21-509): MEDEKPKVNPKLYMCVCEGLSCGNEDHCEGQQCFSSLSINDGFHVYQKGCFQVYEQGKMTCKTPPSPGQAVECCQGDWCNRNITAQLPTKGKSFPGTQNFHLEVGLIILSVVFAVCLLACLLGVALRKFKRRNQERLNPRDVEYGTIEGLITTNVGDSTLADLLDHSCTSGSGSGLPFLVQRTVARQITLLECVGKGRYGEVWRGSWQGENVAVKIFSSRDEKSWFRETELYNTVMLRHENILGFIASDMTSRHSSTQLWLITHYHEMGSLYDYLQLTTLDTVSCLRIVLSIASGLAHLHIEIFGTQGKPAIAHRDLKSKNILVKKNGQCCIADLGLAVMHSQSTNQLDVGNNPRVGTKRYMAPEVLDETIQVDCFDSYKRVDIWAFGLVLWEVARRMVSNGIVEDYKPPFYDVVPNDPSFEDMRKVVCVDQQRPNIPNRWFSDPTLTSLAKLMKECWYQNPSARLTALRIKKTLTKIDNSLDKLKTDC
# Method: as §1
# zebrafish embryos [1] = assay: zebrafish embryo assay (morphological developmental defects at 48 hpf); type: in vivo, zebrafish (Danio rerio)
# Method: Zebrafish eggs obtained from family crosses of Tuebingen long fin zebrafish lines were used to assess the biological activity of all samples. The eggs were washed with fresh E3 medium and subsequently divided over 24-well plates, with ten embryos per well in 1000 µl E3 medium. Samples were added to the wells at various times as mentioned in the figures and legends. At 48 hpf, the zebrafish embryos were inspected for morphological developmental defects. Embryos displaying morphological defects were imaged using a Leica MZFLIII microscope equipped with a Leica DFC320 camera or Leica M165 FC microscope equipped with a Leica DMC5400 camera.
# zebrafish embryos [2] = assay: in situ hybridization with krox20/myod probes in treated zebrafish embryos; type: in vivo, zebrafish (Danio rerio); conditions: 750 nM from 6 hpf, fixed at 12 hpf
# Method: Embryos were treated from approximately 6 hpf until 12 hpf when they were fixed in 4% paraformaldehyde overnight. In situ hybridization was performed using krox20 and myod anti-sense RNA probes as described elsewhere ([Thisse and Thisse, 2008]).
# caAlk2 = assay: rescue of caAlk2 mRNA-induced developmental defects in zebrafish embryos; type: in vivo; conditions: examined at 48 hpf
# Method: The pCS2+ plasmid encoding caAlk2 with a glutamine to aspartic acid substitution at position 204 was kindly donated by Jeroen Bakkers ([Smith et al., 2009]). The DNA sequences of the inserts in plasmid constructs were verified. Both plasmids were digested with NotI and mRNA was generated with SP6 RNA polymerase using a mMessage mMachine kit (Ambion). The mRNA was purified through phenol/isoamylalcohol/chloroform extraction. Zebrafish embryos were injected into the yolk at the one-cell stage with ∼1 nl of either 50 ng/µl GFP mRNA or a cocktail containing 10 ng/µl caAlk2 and 50 ng/µl GFP mRNA. […] Next, embryos were selected for fluorescence at 24 hpf and examined at 48 hpf. The phenotypes were categorized into three groups: no head; head, no eyes; head and eyes. Finally, the bar graph was generated using Prism 8.3.0 for Windows (GraphPad, San Diego, CA, USA). The presented data are a combination of two repeats of the experiment.
# [3] = tested on: BMP2-induced SMAD1/5-dependent BRE-luc transcriptional reporter; assay: BMP2-induced BRE-luc transcriptional reporter assay in HepG2 cells; type: cell-based, human; conditions: HepG2, BMP2 50 ng/ml; cercosporamide 100 nM to 10 µM, LDN-193189 200 nM
# Method: For luciferase transcriptional reporter assays, HepG2 cells were seeded in 9-cm plates at ∼60% confluency and transfected with polyethyleneimine (PEI). Twenty-four hours later, the transfected cells were seeded in 24-well plates at ∼60% confluency. Another 24 h later, the cells were serum starved for 6 h. Subsequently the cells were treated with compound or DMSO for 30 min. Thereafter, the cells were stimulated with BMP2 in the presence of compounds (or DMSO) for 16 h (overnight). Subsequently, the cells were washed with PBS and lysed. Luciferase activity was measured using the luciferase reporter assay system from Promega (Leiden, The Netherlands) by a Perkin Elmer luminometer Victor^3 1420. Each DNA transfection mixture was equalized with empty vector when necessary and every experiment was performed in triplicate. β-galactosidase expression construct was co-transfected and β-galactosidase was measured to normalize for differences in transfection efficiency. The BRE-luc reporter construct has been reported previously ([Korchynskyi and ten Dijke, 2002]).
structure (smiles),measurement,setting,value
"CC(=O)C1=C(O)C=C2Oc3c(C(N)=O)c(O)cc(O)c3[C@]2(C)C1=O [cercosporamide, Cercosporamide]",IC50,TGFB-R1 (ALK5),290 nM
same,IC50,ACV-R1 (ALK2),600 nM
same,"phenotype, combination treatment","zebrafish embryos [1]; 50 nM cercosporamide in combination with 5 µM LDN-193189, from 7 hpf onwards",partial loss of the ventral fin
same,"developmental defects, single treatment","zebrafish embryos [1]; 50 nM, from 7 hpf onwards",did not induce detectable developmental defects
same,phenotype at 48 hpf,"zebrafish embryos [1]; 100 nM, treatment from 7 hpf",abolished the effect
same,phenotype at 48 hpf,"zebrafish embryos [1]; 200 nM, treatment started at 2 hpf",severely truncated phenotype
same,phenotype at 48 hpf,"zebrafish embryos [1]; 200 nM, treatment started at 8 hpf",mild phenotype
same,phenotype at 48 hpf,"zebrafish embryos [1]; 1.5 µM, treatment from 7 hpf",severely truncated phenotype
same,phenotype at 48 hpf,"zebrafish embryos [1]; 3 µM, treatment from 7 hpf",severely truncated phenotype
same,lethal concentration in zebrafish embryos,"zebrafish embryos [1]; treatment from 7 hpf, continuous until 48 hpf",above 3 µM
same,krox20 expression pattern,zebrafish embryos [2],induced lateral expression of krox20
same,fraction of embryos showing the pattern,zebrafish embryos [2]; one fraction per depicted pattern,7/15 and 6/15 and 2/15
same,caAlk2-injected embryos that developed a head with eyes,caAlk2; 100 nM from 2 hpf onwards,58%
same,caAlk2-injected embryos that developed a head with eyes,caAlk2; 200 nM from 2 hpf onwards,86%
same,effect on BMP2-induced BRE-luc activity,[3],inhibited the BMP2-induced response in a dose-dependent manner
